Experimental data taken from patent US20240166624A1, “PPARG INVERSE AGONISTS AND USES THEREOF” (Flare Therapeutics Inc., priority 2021, published 2024).

Columns and labels:
[1] = tested on: FABP4, a PPARG target gene, in 5637 (PPARG amplified) cells; test: Bladder cancer pharmacodynamic assay, 5637 cell assay (qPCR of FABP4); assay type: cell-based; details: 5637 cells, 24 hours, 100 nM compound, relative to DMSO control
Method: Bladder Cancer Pharmacodynamic Assay
5637 (PPARG amplified) and HT1197 (RXRA S427F mutation) cells were used for assessment of modulation of PPARG target genes using quantitative PCR. Cells were treated for 24 hours with PPARG inverse agonists prior to analysis of FABP4 (IDT, Cat: Hs.PT 58.20106818) and ANGPTL4 (IDT, Cat: Hs.PT 58.25480012) expression, with expression of the housekeeping gene TBP (IDT, Cat: Hs.PT 58v.39858774) used to normalize expression across samples. Quantitative PCR was performed using an ABI QuantStudio 7 Flex Reaction system. Data were analyzed and reported relative to DMSO control using the comparative Ct method (ΔΔCt).

[2] = target: T1, PPARG/RXRA LBD heterodimer (Homo sapiens, UniProt P37231); test: PPARγ-NCOR1 recruitment assay (TR-FRET, biotinylated NCOR1 ID2 peptide); assay type: biochemical; details: 80 nM Rosiglitazone, 3 hours, read-out: PPARG-NCOR recruitment assay EC50
T1 construct: His-TEV-Q203-Y477; Uniprot ID P37231-2; made in house; host or cells: E. coli
In short: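 2 nM each of E. coli-expressed PPARG LBD (Q203-Y477) and RXRA LBD (WT or S427F, E228-T462) with biotinylated NCOR1 ID2 peptide, incubated 3 h; TR-FRET read at Ex/Em 615/665. Ratios normalized to DMSO (0%) and T0070907 maximum (100%) for EC50 and maximal recruitment.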
T1 sequence (O75376 2251-2273 partner, one chain of several): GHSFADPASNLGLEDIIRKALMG

[3] = tested on: ANGPTL4, a PPARG target gene, in HT1197 (RXRA S427F mutation) cells; test: Bladder cancer pharmacodynamic assay, HT1197 cell assay (qPCR of ANGPTL4); assay type: cell-based; details: Homo sapiens, 24 hours; for inhibition at 0.1 µM: 100 nM compound, relative to DMSO control
In short: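 5637 (PPARG amplified) and HT1197 (RXRA S427F) cells treated 24 h with PPARG inverse agonists. FABP4 and ANGPTL4 expression measured by qPCR, normalised to TBP, and reported relative to DMSO control by ΔΔCt.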

[4] = target: T2, PPARG/RXRA LBD heterodimer (Homo sapiens, UniProt P37231); test: PPARγ-MED1 blockade assay (TR-FRET, biotinylated MED1 LxxLL peptide); assay type: biochemical; details: WT PPARG LBD/WT RXRA LBD, 80 nM Rosiglitazone, 3 hours
T2 construct: His-TEV-Q203-Y477; Uniprot ID P37231-2; made in house; host or cells: E. coli
T2 sequence (P37231 203-477 isoform P37231-2): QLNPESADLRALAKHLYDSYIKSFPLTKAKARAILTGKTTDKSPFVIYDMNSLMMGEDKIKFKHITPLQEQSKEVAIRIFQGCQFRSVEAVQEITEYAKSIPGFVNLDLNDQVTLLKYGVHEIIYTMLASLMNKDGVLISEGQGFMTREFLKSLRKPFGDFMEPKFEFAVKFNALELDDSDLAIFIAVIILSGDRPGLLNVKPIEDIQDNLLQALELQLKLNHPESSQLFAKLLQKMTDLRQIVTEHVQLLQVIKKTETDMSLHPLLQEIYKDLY
T2 sequence (P19793 228-462 partner limits assumed): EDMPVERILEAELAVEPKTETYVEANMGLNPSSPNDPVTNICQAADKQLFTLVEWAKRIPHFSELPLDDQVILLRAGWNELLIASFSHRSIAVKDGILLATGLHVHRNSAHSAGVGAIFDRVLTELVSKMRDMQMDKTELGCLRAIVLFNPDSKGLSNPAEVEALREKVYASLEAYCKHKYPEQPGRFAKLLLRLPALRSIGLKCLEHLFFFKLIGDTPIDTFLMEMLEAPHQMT
In short: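 TR-FRET measuring biotinylated MED1 LxxLL peptide association with 2 nM each His-PPARG LBD (Q203-Y477) and Flag-RXRA LBD (E228-T462), E. coli expressed. Read after 3 h incubation; ratios normalized to DMSO (0%) and GW9662 minimum (100%) for IC50 and maximal MED1 repulsion.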

| SMILES | EC50 [2] | EC50 [4] | EC50 ([3]; ANGPTL4 expression) | inhibition at 0.1 µM [1] | inhibition at 0.1 µM [3] |
| --- | --- | --- | --- | --- | --- |
| N#Cc1ccc(Cl)c(-c2cc(=O)c3cc(F)c(F)cc3[nH]2)c1 [Example 5, 4-chloro-3-(6,7-difluoro-4-oxo-1H-quinolin-2-yl)benzonitrile] | 1000 to 10000 nM | 1000 to 10000 nM | – | 90% | 86% |
| CN(C)[C@H]1CCN(c2c(F)cc3[nH]c(-c4cc(C#N)ccc4Cl)cc(=O)c3c2F)C1 [Example 108, (S)-4-chloro-3-(6-(3-(dimethylamino)pyrrolidin-1-yl)-5,7-difluoro-4-oxo-1,4-dihydroquinolin-2-yl)benzonitrile] | 1000 to 10000 nM | 1000 to 10000 nM | – | – | 65% |
| CN1CC2(C1)CN(c1c(F)cc3[nH]c(-c4cc(C#N)ccc4Cl)cc(=O)c3c1F)C2 [Example 99, 4-chloro-3-(5,7-difluoro-6-(6-methyl-2,6-diazaspiro[3.3]heptan-2-yl)-4-oxo-1,4-dihydroquinolin-2-yl)benzonitrile] | > 10000 nM | > 10000 nM | – | – | 59% |
| CN(C)C(=O)N1CCN(c2c(F)cc3[nH]c(-c4cc(C#N)ccc4Cl)cc(=O)c3c2F)CC1 [Example 113, 4-(2-(2-chloro-5-cyanophenyl)-5,7-difluoro-4-oxo-1,4-dihydroquinolin-6-yl)-N,N-dimethylpiperazine-1-carboxamide] | 1000 to 10000 nM | 1000 to 10000 nM | – | – | 80% |
| CN1CCN(c2c(F)cc3[nH]c(-c4cc(C#N)ccc4Cl)cc(=O)c3c2F)CC1 [Example 19, 4-chloro-3-(5,7-difluoro-6-(4-methylpiperazin-1-yl)-4-oxo-1,4-dihydroquinolin-2-yl)benzonitrile] | 1000 to 10000 nM | 1000 to 10000 nM | – | – | 75% |
| N#Cc1ccc(Cl)c(-c2cc(=O)c3c(F)c(-n4cccn4)c(F)cc3[nH]2)c1 [Example 25, 4-chloro-3-(5,7-difluoro-4-oxo-6-(1H-pyrazol-1-yl)-1,4-dihydroquinolin-2-yl)benzonitrile] | 1000 to 10000 nM | 1000 to 10000 nM | – | – | 22% |
| Cc1nc(-c2c(F)cc3[nH]c(-c4cc(C#N)ccc4Cl)cc(=O)c3c2F)c[nH]1 [Example 65, 4-chloro-3-(5,7-difluoro-6-(2-methyl-1H-imidazol-4-yl)-4-oxo-1,4-dihydroquinolin-2-yl)benzonitrile] | 100 to 1000 nM | 100 to 1000 nM | – | – | 44% |
| CN(C)C(=O)c1cc(-c2c(F)cc3[nH]c(-c4cc(C#N)ccc4Cl)cc(=O)c3c2F)cc(F)c1F [Example 86, 5-(2-(2-chloro-5-cyanophenyl)-5,7-difluoro-4-oxo-1,4-dihydroquinolin-6-yl)-2,3-difluoro-N,N-dimethylbenzamide] | 100 to 1000 nM | 100 to 1000 nM | – | – | 75% |
| CN(C)C(=O)[C@H]1CCN(c2c(F)cc3[nH]c(-c4cc(C#N)ccc4Cl)cc(=O)c3c2F)C1 [Example 117, (S)-1-(2-(2-chloro-5-cyanophenyl)-5,7-difluoro-4-oxo-1,4-dihydroquinolin-6-yl)-N,N-dimethylpyrrolidine-3-carboxamide] | 1000 to 10000 nM | 1000 to 10000 nM | – | – | 79% |

Now from value to compound, other results behind:

| EC50 [2] | EC50 [4] | EC50 ([3]; ANGPTL4 expression) | SMILES | inhibition at 0.1 µM [1] | inhibition at 0.1 µM [3] |
| --- | --- | --- | --- | --- | --- |
| 100 to 1000 nM | 100 to 1000 nM | – | N#Cc1ccc(Cl)c(-c2cc(=O)c3cc(Cl)c(Cl)cc3[nH]2)c1 [Example 2, 4-chloro-3-(6,7-dichloro-4-oxo-1,4-dihydroquinolin-2-yl)benzonitrile] | 93% | 83% |
| 100 to 1000 nM | 100 to 1000 nM | – | N#Cc1ccc(Br)c(-c2cc(=O)c3cc(F)c(F)cc3[nH]2)c1 [Example 6, 4-bromo-3-(6,7-difluoro-4-oxo-1,4-dihydroquinolin-2-yl)benzonitrile] | 93% | – |
| 100 to 1000 nM | 100 to 1000 nM | 5 nM | N#Cc1ccc(Cl)c(-c2cc(=O)c3c(F)cc(F)cc3[nH]2)c1 [Example 1, 4-chloro-3-(5,7-difluoro-4-oxo-1,4-dihydroquinolin-2-yl)benzonitrile] | 95% | 88% |
| 10 to 100 nM | 100 to 1000 nM | – | N#Cc1ccc(Cl)c(-c2cc(=O)c3c(F)c(-c4ccc(C(F)(F)F)cc4)c(F)cc3[nH]2)c1 [Example 11, 4-chloro-3-(5,7-difluoro-4-oxo-6-(4-(trifluoromethyl)phenyl)-1,4-dihydroquinolin-2-yl)benzonitrile] | 94% | 88% |
| 10 to 100 nM | 10 to 100 nM | – | N#Cc1ccc(Br)c(-c2cc(=O)c3c(F)cc(F)cc3[nH]2)c1 [Example 4, 4-bromo-3-(5,7-difluoro-4-oxo-1,4-dihydroquinolin-2-yl)benzonitrile] | 94% | 90% |
| 10 to 100 nM | 10 to 100 nM | – | N#Cc1ccc(Cl)c(-c2cc(=O)c3c(F)c(-c4c[nH]c(C(F)(F)F)n4)c(F)cc3[nH]2)c1 [Example 67, 4-chloro-3-(5,7-difluoro-4-oxo-6-(2-(trifluoromethyl)-1H-imidazol-4-yl)-1,4-dihydroquinolin-2-yl)benzonitrile] | – | 22% |
| 100 to 1000 nM | 100 to 1000 nM | – | COCCn1ccc(-c2c(F)cc3[nH]c(-c4cc(C#N)ccc4Cl)cc(=O)c3c2F)n1 [Example 72, 4-chloro-3-(5,7-difluoro-6-(1-(2-methoxyethyl)-1H-pyrazol-3-yl)-4-oxo-1,4-dihydroquinolin-2-yl)benzonitrile] | – | 79% |
| 10 to 100 nM | 100 to 1000 nM | – | N#Cc1cccc(-c2c(F)cc3[nH]c(-c4cc(C#N)ccc4Cl)cc(=O)c3c2F)c1 [Example 41, 4-chloro-3-(6-(3-cyanophenyl)-5,7-difluoro-4-oxo-1,4-dihydroquinolin-2-yl)benzonitrile] | – | 72% |
| 100 to 1000 nM | 100 to 1000 nM | – | COc1cc(F)c2c(=O)cc(-c3cc(C#N)ccc3Cl)[nH]c2c1 [Example 22, 4-chloro-3-(5-fluoro-7-methoxy-4-oxo-1,4-dihydroquinolin-2-yl)benzonitrile] | – | 29% |
